Experiments:
infliximab = assay: Thermal stability at 50° C. with caffeine and excipients, SE-HPLC (Example 63); format: physicochemical; conditions: excipient 0.5 M, caffeine 50 mM, infliximab 10 mg/mL, 5 mM phosphate pH 7.5, 50° C., 180 min
Method: Therapeutic proteins stress leads to aggregation of the protein and a decrease in the active native species. […] The aliquots were withdrawn at 0 min, 90 min and 180 min. […] Diode array detector.

[1] = Caffeine solubility with co-solutes during refrigerated storage (Example 61); format: physicochemical; set-up: key: (PPT)—precipitate observed; (—)—clear solution observed; conditions: 50 mM co-solute, 25 mM histidine pH 6, stored 2 to 5° C.
Method: The resulting microplates were then sealed with microplate tape and stored in a refrigerator with the temperature maintained in the range of 2 to 5° C. Over the course of storage, the microplates were visually observed for evidence of precipitate in the well.

[2] = system: bovine gamma globulin (BGG); assay: Normalized viscosity of BGG with caffeine and a secondary excipient (Example 40); format: physicochemical; conditions: BGG about 280 mg/mL, 20 mM histidine pH 6, 25° C.
omalizumab [3] = assay: Freeze-thaw stability, light scattering at 350 nm (Example 48); format: physicochemical; conditions: excipient 5 mg/mL, omalizumab 5 mg/mL, 20 mM histidine pH 6.0, at least 5 freeze (−80° C.)/thaw cycles
ustekinumab [4] = assay: Urea denaturation, Sypro orange fluorescence (Example 44); format: physicochemical; conditions: excipient 5 mg/mL, ustekinumab 1 mg/mL, 6M urea, 20 mM histidine pH 6.0, Sypro orange fluorescence
Text: It is known that urea denatures proteins in solution and causes them to unfold. The screening methodology in this example involved adding a specific concentration of urea to a therapeutic protein solution such as ustekinumab. […] One method to track protein unfolding involves the use of extrinsic fluorescent dyes such as Sypro orange. Sypro orange binds to hydrophobic regions in the unfolded protein structure, leading to an increase in the fluorescence signal observed. Measuring the differences in the fluorescence intensity of unfolded protein-Sypro orange complex in presence of different excipients thus allows one to identify any stabilizing effects.
All excipients used in this Example, listed in Table 45 below, were of the highest purity, and were obtained from Sigma Aldrich (St. Louis, MO) or Cayman Chemical (Ann Arbor, MI). […] This urea stock solution was then added to a final concentration of 6M to produce the test solutions (excipient plus protein plus urea). […] The pH of the mixture was rechecked and confirmed to be at pH 6.0. The test solutions were allowed to incubate at room temperature for 30 min.

ustekinumab [5] = assay: Stabilization at low pH, Sypro orange fluorescence (Example 45); conditions: excipient 5 mg/mL, ustekinumab 1 mg/mL, glycine acidification buffer pH 2.6, Sypro orange fluorescence
omalizumab [6] = assay: Freeze/thaw stress (6 cycles), monomer by SE-HPLC (Example 57); format: physicochemical; conditions: excipient 100 mM, omalizumab 2 mg/mL, 20 mM Histidine pH 6.0, freeze (−80° C.)/thaw
Method: Therapeutic proteins are frequently kept at low temperatures to improve their kinetic stability and minimize structural perturbations that could lead to the aggregation of the protein and a decrease in the active native species. In certain cases, this might be done by freezing the formulation until use. However, the low temperatures, concentration gradients, and ice formation during repeated freezing and thawing can stress the protein. […] The formulations were then aliquoted into 0.5 mL cryovials and frozen at −80° C. for 120 min. The samples were then thawed using a water bath kept at room temperature.

[7] = Excipient A caffeine 15 mg/mL + Excipient B 20 mg/mL
[8] = Excipient A caffeine 15 mg/mL + Excipient B 15 mg/mL

O[C@H]1[C@H](O)[C@@H](O)[C@H](O)[C@@H](O)[C@H]1O [Inositol]
% change compared to control (infliximab): 58.9%

N[C@@H](Cc1ccccc1)C(=O)O [Phenylalanine]
Day 1 (visual observation for precipitate) ([1]; caffeine 7.5 mg/mL): —
Day 7 (visual observation for precipitate) ([1]; caffeine 7.5 mg/mL): —
Day 18 (visual observation for precipitate) ([1]; caffeine 7.5 mg/mL): —
Day 27 (visual observation for precipitate) ([1]; caffeine 7.5 mg/mL): —
Day 56 (visual observation for precipitate) ([1]; caffeine 7.5 mg/mL): —
Day 1 (visual observation for precipitate) ([1]; caffeine 10 mg/mL): —
Day 7 (visual observation for precipitate) ([1]; caffeine 10 mg/mL): —
Day 18 (visual observation for precipitate) ([1]; caffeine 10 mg/mL): —
Day 27 (visual observation for precipitate) ([1]; caffeine 10 mg/mL): —
Day 56 (visual observation for precipitate) ([1]; caffeine 10 mg/mL): —
Day 1 (visual observation for precipitate) ([1]; caffeine 12.5 mg/mL): —
Day 7 (visual observation for precipitate) ([1]; caffeine 12.5 mg/mL): —
Day 18 (visual observation for precipitate) ([1]; caffeine 12.5 mg/mL): —
Day 27 (visual observation for precipitate) ([1]; caffeine 12.5 mg/mL): —
Day 56 (visual observation for precipitate) ([1]; caffeine 12.5 mg/mL): —
Day 1 (visual observation for precipitate) ([1]; caffeine 15 mg/mL): —
Day 7 (visual observation for precipitate) ([1]; caffeine 15 mg/mL): —
Day 18 (visual observation for precipitate) ([1]; caffeine 15 mg/mL): —
Day 27 (visual observation for precipitate) ([1]; caffeine 15 mg/mL): —
Day 56 (visual observation for precipitate) ([1]; caffeine 15 mg/mL): PPT
Day 1 (visual observation for precipitate) ([1]; caffeine 20 mg/mL): —
Day 7 (visual observation for precipitate) ([1]; caffeine 20 mg/mL): PPT
Day 18 (visual observation for precipitate) ([1]; caffeine 20 mg/mL): PPT
Day 27 (visual observation for precipitate) ([1]; caffeine 20 mg/mL): PPT
Day 56 (visual observation for precipitate) ([1]; caffeine 20 mg/mL): PPT
Normalized Viscosity [2, 7]: 0.60

O=C(O)CN(CCN(CC(=O)O)CC(=O)O)CCN(CC(=O)O)CC(=O)O [DTPA]
% reduction in light scattering at 350 nm vs. control (omalizumab [3]): 17.2%

OC[C@H]1O[C@@](CO)(O[C@H]2O[C@H](CO)[C@@H](O)[C@H](O)[C@H]2O)[C@@H](O[C@H]2O[C@H](CO)[C@@H](O)[C@H](O)[C@H]2O)[C@@H]1O [Melezitose]
% reduction in light scattering at 350 nm vs. control (omalizumab [3]): 7.4%

OC[C@H]1O[C@H](OC[C@H]2O[C@H](O[C@]3(CO)O[C@H](CO)[C@@H](O)[C@@H]3O)[C@H](O)[C@@H](O)[C@@H]2O)[C@H](O)[C@@H](O)[C@H]1O [Raffinose]
% increased stability (ustekinumab [4]): 1.7%
% change in stability (ustekinumab [5]): 2.6%
% reduction in light scattering at 350 nm vs. control (omalizumab [3]): 3.7%

O=P(O)(O)C(O)(Cc1cccnc1)P(=O)(O)O [Risedronate]
% change compared to control (infliximab): 46.2%

OC[C@@H](O)[C@H](O)[C@@H](O)CO [Xylitol]
% increased stability (ustekinumab [4]): 6.3%
% change in stability (ustekinumab [5]): 0.4%
% reduction in light scattering at 350 nm vs. control (omalizumab [3]): 10.7%

CC(=O)N[C@@H]1C(O)O[C@H](CO)[C@@H](O)[C@@H]1O (stereo partly shown) [N-acetyl mannosamine]
% increase in monomer content vs. control (omalizumab [6]): 6.63%

NC(=O)c1ccncc1 [Isonicotinamide]
% change in stability (ustekinumab [5]): 65.4%
% reduction in light scattering at 350 nm vs. control (omalizumab [3]): 4.8%

O=C(O)[C@@H]1C[C@@H](O)CN1 [Hydroxyproline]
% change compared to control (infliximab): 67.3%

O=C(CO)[C@H](O)[C@H](O)[C@H](O)CO [Psicose]
% change in stability (ustekinumab [5]): 1.1%
% reduction in light scattering at 350 nm vs. control (omalizumab [3]): 15.3%

OC[C@@H](O)[C@@H](O)[C@H](O)[C@H](O)CO [Mannitol]
% reduction in light scattering at 350 nm vs. control (omalizumab [3]): 17.8%

Maltotriose
% change compared to control (infliximab): 12.6%

O=C(CO)[C@@H](O)[C@H](O)[C@H](O)[C@H](O)CO [seduheptalose]
% reduction in light scattering at 350 nm vs. control (omalizumab [3]): 16.0%

CNC[C@H](O)[C@@H](O)[C@H](O)[C@H](O)CO [Meglumine]
% change in stability (ustekinumab [5]): 41.8%
% reduction in light scattering at 350 nm vs. control (omalizumab [3]): 15.3%

OC[C@H](O)[C@@H](O)[C@H](O)[C@@H](O)CO [Iditol]
% change in stability (ustekinumab [5]): 11.6%
% reduction in light scattering at 350 nm vs. control (omalizumab [3]): 11.7%

CS(C)(=O)=O [Dimethyl sulfone, dimethyl sulfone]
Normalized Viscosity ([2]; Excipient A caffeine 15 mg/mL + Excipient B 25 mg/mL): 0.65

NC(=O)c1cccnc1 [Niacinamide]
Normalized Viscosity [2, 8]: 0.63

N[C@@H](CC(=O)O)C(=O)O [Aspartic acid]
Normalized Viscosity [2, 7]: 0.73

CC(C)C[C@H](N)C(=O)O [Leucine]
Normalized Viscosity [2, 7]: 0.69

O=C1O[C@H]([C@@H](O)CO)C(O)=C1O[C@H]1O[C@H](CO)[C@@H](O)[C@H](O)[C@H]1O [Ascorbyl glucoside]
% change compared to control (infliximab): 45.8%

OC[C@H]1O[C@H](O[C@H]2[C@H](O)[C@@H](O)C(O)O[C@@H]2CO)[C@H](O)[C@@H](O)[C@@H]1O (mixture of isomers) [Maltose]
% change compared to control (infliximab): 9.65%

CCO [Ethanol]
Normalized Viscosity ([2]; Excipient A caffeine 15 mg/mL + Excipient B 22 mg/mL): 0.65

C[N+](C)(C)[O-] [Trimethyl amine N-oxide]
% change compared to control (infliximab): 10.9%

O.O.[Ca+2].[Cl-].[Cl-] [CaCl2 dihydrate]
Normalized Viscosity [2, 8]: 0.65

From patent publication US20250186600A1, “EXCIPIENT COMPOUNDS FOR PROTEIN FORMULATIONS” (Comera Life Sciences, Inc., priority 2020, published 2025)
